Measurements from PubChem BioAssay (NCI).
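Interpolation was linear, between the two tested concentrations surrounding the appropriate level; five concentrations were tested over 48 hours in 96-well plates. GI50 = concentration required for 50% inhibition of growth. At the TGI there is no net growth.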

Assays:
Experiment in all cases: NCI-60 cell line screen, 48 h
[1] = tested on: TK-10 renal
[2] = tested on: U251 CNS
[3] = tested on: IGROV1 ovarian
[4] = tested on: SK-OV-3 ovarian
[5] = tested on: A498 renal
[6] = tested on: SK-MEL-28 melanoma
[7] = tested on: MDA-MB-231 breast
[8] = tested on: SF-295 CNS
[9] = tested on: DU-145 prostate
[10] = tested on: M14 melanoma
[11] = tested on: HOP-92 NSCLC
[12] = tested on: SNB-75 CNS
[13] = tested on: KM12 colon
[14] = tested on: LOX IMVI melanoma
[15] = tested on: COLO 205 colon
[16] = tested on: CAKI-1 renal
[17] = tested on: OVCAR-8 ovarian
[18] = tested on: HOP-62 NSCLC
[19] = tested on: 786-0 renal
[20] = tested on: HL-60(TB) leukemia
[21] = tested on: HT29 colon
[22] = tested on: SN12C renal
[23] = tested on: NCI-H226 lung
[24] = tested on: HCC-2998 colon
[25] = tested on: RPMI-8226 leukemia
[26] = tested on: MOLT-4 leukemia
[27] = tested on: EKVX NSCLC
[28] = tested on: A549 NSCLC
[29] = tested on: HS 578T breast
[30] = tested on: SNB-19 CNS
[31] = tested on: OVCAR-4 ovarian
[32] = tested on: MALME-3M melanoma
[33] = tested on: K-562 leukemia
[34] = tested on: CCRF-CEM leukemia
[35] = tested on: MCF7 breast
[36] = tested on: SF-539 CNS
[37] = tested on: MDA-MB-435
[38] = tested on: SW-620 colon
[39] = tested on: SF-268 CNS
[40] = tested on: UO-31 renal
[41] = tested on: NCI-H23 lung
[42] = tested on: NCI/ADR-RES ovarian
[43] = tested on: OVCAR-3 ovarian
[44] = tested on: T-47D breast
[45] = tested on: ACHN renal
[46] = tested on: NCI-H460 lung
[47] = tested on: PC-3 prostate
[48] = tested on: SK-MEL-5 melanoma
[49] = tested on: UACC-257 melanoma
[50] = tested on: UACC-62 melanoma
[51] = tested on: NCI-H522 lung
[52] = tested on: RXF 393 renal
[53] = tested on: HCT-116 colon
[54] = tested on: OVCAR-5 ovarian
[55] = tested on: SR leukemia
[56] = tested on: HCT-15 colon
[57] = tested on: SK-MEL-2 melanoma

## O=C1C=CC(=O)N1CCCCCCCCCCN1C(=O)C=CC1=O
[1]
  GI50: 22.9 µM
  TGI: 69 µM
[2]
  GI50: 17 µM
  TGI: 37.8 µM
[3]
  GI50: 7.89 µM
  TGI: 24.7 µM
[4]
  GI50: > 100 µM
  TGI: > 100 µM
[5]
  GI50: 20 µM
  TGI: 49.7 µM
[6]
  GI50: 14.8 µM
  TGI: 30.9 µM
[7]
  GI50: 15.7 µM
  TGI: 29.5 µM
[8]
  GI50: 23.5 µM
  TGI: 74.4 µM
[9]
  GI50: 15.8 µM
  TGI: 29.2 µM
[10]
  GI50: 6.9 µM
  TGI: 20 µM
[11]
  GI50: 20.8 µM
  TGI: 37 µM
[12]
  GI50: 11.5 µM
  TGI: 24.4 µM
[13]
  GI50: 15.4 µM
  TGI: 30.3 µM
[14]
  GI50: 11.3 µM
  TGI: 24.4 µM
[15]
  GI50: 2.15 µM
  TGI: 5.62 µM
[16]
  GI50: 9.19 µM
  TGI: 25.2 µM
[17]
  GI50: 13.9 µM
  TGI: 44 µM
[18]
  GI50: 16.2 µM
  TGI: 31.3 µM
[19]
  GI50: 16.2 µM
  TGI: 30.4 µM
[20]
  GI50: 8.72 µM
  TGI: 31.4 µM
[21]
  GI50: 4.67 µM
  TGI: 26.7 µM
[22]
  GI50: 15.1 µM
  TGI: 29.5 µM
[23]
  GI50: 17.1 µM
  TGI: 34.4 µM
[24]
  GI50: 26 µM
  TGI: 71.2 µM
[25]
  GI50: 6.72 µM
  TGI: 57.7 µM
[26]
  GI50: 8.62 µM
  TGI: 48.6 µM
[27]
  GI50: 19.4 µM
  TGI: 39.2 µM
[28]
  GI50: 18.2 µM
  TGI: 41.5 µM
[29]
  GI50: 16.3 µM
  TGI: 56.9 µM
[30]
  GI50: 37.6 µM
  TGI: > 100 µM
[31]
  GI50: 8.38 µM
  TGI: 24.8 µM
[32]
  GI50: 2.05 µM
  TGI: 6.49 µM
[33]
  GI50: 7.63 µM
  TGI: 67.9 µM
[34]
  GI50: 4.05 µM
  TGI: > 100 µM
[35]
  GI50: 5.62 µM
  TGI: 24.2 µM
[36]
  GI50: 16.4 µM
  TGI: 30.6 µM
[37]
  GI50: 13.2 µM
  TGI: 28.1 µM
[38]
  GI50: 2.42 µM
  TGI: 6.09 µM
[39]
  GI50: 15.8 µM
  TGI: 30.4 µM
[40]
  GI50: 4.92 µM
  TGI: 19.6 µM
[41]
  GI50: 15.6 µM
  TGI: 31.6 µM
[42]
  GI50: 21.2 µM
  TGI: 55.9 µM
[43]
  GI50: 4.1 µM
  TGI: 15.1 µM
[44]
  GI50: 15.3 µM
  TGI: 40.7 µM
[45]
  GI50: 4.85 µM
  TGI: 16.8 µM
[46]
  GI50: 33.3 µM
  TGI: > 100 µM
[47]
  GI50: 18.1 µM
  TGI: 36.5 µM
[48]
  GI50: 22.2 µM
  TGI: 56.1 µM
[49]
  GI50: 11.5 µM
  TGI: 24.8 µM
[50]
  GI50: 14.8 µM
  TGI: 28.2 µM
[51]
  GI50: 1.6 µM
  TGI: 3.41 µM
[52]
  GI50: 3.13 µM
  TGI: 11.3 µM
[53]
  GI50: 3.6 µM
  TGI: 12.9 µM
[54]
  GI50: 17.4 µM
  TGI: 31.6 µM
[55]
  GI50: 6.88 µM
  TGI: 41.2 µM
[56]
  GI50: 10.3 µM
  TGI: 25.7 µM

## N=C(N)c1ccc(-c2ccc(-c3cc(Cl)cc(Cl)c3)s2)nc1
[4]
  GI50: 2.6 µM
  TGI: 8.15 µM
[9]
  GI50: 1.88 µM
  TGI: 3.33 µM
[11]
  GI50: 3.43 µM
  TGI: 19.4 µM
[12]
  GI50: 1.47 µM
  TGI: 3.03 µM
[20]
  GI50: 2.12 µM
  TGI: 4.95 µM
[25]
  GI50: 2.31 µM
  TGI: 5.26 µM
[57]
  GI50: 2.7 µM
  TGI: 7.02 µM
[28]
  GI50: 2.07 µM
  TGI: 4.56 µM
[34]
  GI50: 2.39 µM
  TGI: 5.86 µM
[44]
  GI50: 2.12 µM
  TGI: 4.99 µM
[51]
  GI50: 2.16 µM
  TGI: 4.73 µM
[54]
  GI50: 1.68 µM
  TGI: 3.05 µM
